These results are taken from US6706293B1, “Pharmaceutical composition capable of regulating the expression of adhesion molecules” (Especialidades Farmaceuticas Centrum, S.A., priority 1999, dated 2004).

In assay [1] the test system is Female WISTAR rats. The assay is described as follows: Anti-inflammatory activity in acute and chronic phase in rats (adjuvant + carrageenin foot volume, method of Mizushima). Type of assay: in vivo, rat. The settings on record: oral, Phenylbutazone 80 mg/Kg, extract 1.25 g per kg. The method, then: A study of the anti-inflammatory activity has been made in acute and chronic phase in rats. The method used was as described by Mizushima. The reference medicament (Phenylbutizene, dose 80 mg/Kg) and the products of the study (dose equivalent to 1.25 g extract per kg weight of animal) were dissolved in a solution of 1% of CMC (carboxymethylcellulose) in distillated water (w/v) and Tween 80: distillated water (0.2:3.3-v/v), in order to be administrated orally. Six days after inoculation, by intradermal route of 0.1 mL of the complete adjuvant Freund (DIFCO) in the basal part of the tail, was injected 0.1 mL of a suspension of carrageenin type IV 2% (w/v) at the aponeurosis of the left back foot. The volume of the foot of the animal was measured, using a water pletismometer, immediately before the carrageenin injection (basal volume) and afterwards at 3, 5, and 7 hours (acute phase of the inflammation) and at 24, 48, 72, and 96 hours (chronic phase of inflammation). The products of the study, the phenylbutazone, and the carrier were administrated, orally and in portions of 6 animals, 1 hour before the carrageenin injection and at 24, 48 and 72 hours. The percentage of inhibition of the inflammation was calculated by comparing the increase of the volume of the animal foot in respect of its basal volume, for each group of animals and in relation to the control group. The control group was given the carrier of phenylbutazone and the products of the study. The statistical significance was evaluated via the T Student test.

Assay [2] has as its system CD11b. The experiment in a line: In vitro expression of adhesion molecules in peripheral blood mononuclear cells (flow cytometry). The class given is cell-based, human. The settings on record: PBMNc of 10 healthy individuals, 48 hours culture; PHA 10 μg/ml, Anapsos 150 μg/ml; CONTROL 20%. Here is the method: (§1) Peripheral blood was extracted from 10 healthy individuals and the mononuclear cells was separated via Fycoll-Hypaque density gradient centrifugation. The cells was cultivated in plane bottom microtiter plates, at a titer of 1 million/ml for 48 hours in a CO2 incubator, with phytohaemagglutinin (PHA) at concentrations of 0, 0.5, 2, 5 and 10 μg/ml and/or with Anapsos at concentrations between 0 to 5000 μg/ml. Finalized the culturing, the lymphocytes was analyzed by flow cytometry. The expression of determined adhesion molecules (CD11a, CD11b, CD18, CD54) was studied in relation to the different conditions of stimuli. En parallel to the culture as described above, a culture for 5 days was made under the same conditions of stimuli as above. Tritium thymidine was added 16 hours before finalizing the culture. Terminated the culture, the cells was washed with the Harvester and flashing liquid was incorporated into the cells. The cellular incorporation of tritium thymidine was measured via a β counter. During the culturing, the cells were photographed via an inverted microscope.

Assay [3] concerns CD54. Described as above. Type of assay: cell-based, human. The settings on record: PBMNc of 10 healthy individuals, 48 hours culture; PHA 10 μg/ml, Anapsos 150 μg/ml; CONTROL 2%. The method, then:
as §1

For assay [4], the system named is CD18. The description is as above. Type of assay: cell-based, human. The settings on record: PBMNc of 10 healthy individuals, 48 hours culture; PHA 10 μg/ml, Anapsos 150 μg/ml; CONTROL 20%. Here is the method: as §1
In assay [5] the test system is CD11a. The description is as above. Type of assay: cell-based, human. The following applies: PBMNc of 10 healthy individuals, 48 hours culture; PHA 10 μg/ml, Anapsos 150 μg/ml; CONTROL 17%. The method, then:
as §1

As to `CCCCC1C(=O)N(c2ccccc2)N(c2ccccc2)C1=O` [Phenylbutazone], the “% INHIBITION OF THE INFLAMMATION 3 h” value in assay [1] (3 h after carrageenin (acute phase)) is on record as 41%. For the same molecule, in assay [1] (5 h after carrageenin (acute phase)), the “% INHIBITION OF THE INFLAMMATION 5 h” value was 27%. Also, the “% INHIBITION OF THE INFLAMMATION 7 h” value in assay [1] (7 h after carrageenin (acute phase)) was determined as 21%. The “% INHIBITION OF THE INFLAMMATION 24 h” value in assay [1] (24 h after carrageenin (chronic phase)) stood at 36%. The “% INHIBITION OF THE INFLAMMATION 48 h” value in assay [1] (48 h after carrageenin (chronic phase)) amounted to 60%. In addition, the “% INHIBITION OF THE INFLAMMATION 72 h” value in assay [1] (72 h after carrageenin (chronic phase)) is recorded as 56%. Besides, the “% INHIBITION OF THE INFLAMMATION 96 h” value in assay [1] (96 h after carrageenin (chronic phase)) amounted to 40%.
In the case of phytohaemagglutinin [PHA], in assay [2], the “Expression, in vitro, of CD11b” value is recorded as 35%. Besides, in assay [3], the “Expression, in vitro, of CD54” value is 9%. Besides, the “Expression, in vitro, of CD18” value in assay [4] is recorded as 27%. Moreover, the “Expression, in vitro, of CD11a” value in assay [5] amounted to 22%.
